Measurements reported in patent US20250009743A1, “METHODS OF TREATING CANCERS USING STING AGONISTS” (Dana-Farber Cancer Institute, Inc., priority 2021, published 2025).

Experiments:
BP-sgSTING tumors = assay: BP-sgSTING tumor growth and survival in FVB mice; format: in vivo, mouse; conditions: olaparib 50 mg/kg i.p. q.d.
Method: Primary mammary tumor cells for orthotopic injection were resuspended in serum-free DMEM containing 40% matrigel (Corning). 5×10^5 tumor cells in a total volume of 100 μL were injected orthotopically into the thoracic mammary fat pads of 8-week-old female FVB/NJ mice (The Jackson Laboratory). Tumor growth was examined by measuring the greatest longitudinal diameter (length) and the greatest transverse diameter (width) with digital calipers, and tumor volume was calculated by use of the modified ellipsoid formula (0.52×length×width2). Tumors were measured 2-3 times a week. All tumor measurements within single cohorts were performed by the same researcher. Tumor-bearing mice were randomized prior to start of treatment. Drug treatments were started when mean tumor volumes approximated 50-100 mm3. Mice were euthanized by CO2 inhalation when tumor volumes met humane endpoints described in the IACUC (20 mm diameter) protocols or upon severe health deterioration.
Olaparib (MedChem, #HY-10162) was prepared by diluting 100 mg/l mL stocks in DMSO with 10% (2-Hydroxypropyl)-β-cyclodextrin (HPCD, MedChem, #101103) in PBS and administered immediately after drug preparation by intraperitoneal (i.p.) injection at a dose of 50 mg/kg body weight daily. DMXAA (Sigma, #D5817) was reconstituted at 10 mg/mL in 7.5% NaHCO3(Gibco). […]

[1] = test system: WT BMDMs and STING^−/− BMDMs; assay: WT and STING^−/− BMDMs cultured in CM from ID8-Brca1^−/− cells; format: cell-based, mouse; conditions: CM of control or olaparib-treated ID8-Brca1^−/− cells; FIG. 21I
Method: For ex vivo culture of mouse macrophages, bone marrow cells were isolated from FVB/NJ mice and cultured in DMEM containing 10% FBS, 55 μM 2-Mercaptoethanol and 20 ng/ml M-CSF. BMDMs (bone marrow derived macrophages) were harvested on day 7 and further cultured in 2.0 ml control medium (90% DMEM, 10% FBS, 55 μM 2-Mercaptoethanol and 5 ng/ml M-CSF) described above or the medium containing 50% tumor cell conditioned medium for 72 hrs before analysis. For the tumor cell conditioned medium, about 3×10^5 tumor cells were cultured in 6-well plate for 24 hrs and then treated with DMSO or olaparib. After 24 hrs incubation with DMSO or olaparib, the tumor cells were washed twice with PBS and cultured in DMEM containing 10% FBS for 48 hrs. The tumor cell conditioned medium was collected by centrifugation at 1,500 g for 5 min at 4° C. to remove all the debris and cells. For the cytokine blocking experiment, monoclonal antibodies that specific to each cytokine were added to the tumor cell conditioned medium before it was applied to culture macrophages.

PBM-R tumor cells = assay: γ-H2AX flow cytometry in PBM-R cells; format: cell-based, mouse; conditions: 1 μM olaparib 24 hours
Method: Analysis of p-STAT3 and γ-H2AX (p-HA2X-Ser139) was performed according to a two-step protocol for intracellular phosphorylated signaling proteins (Thermo Fisher). Briefly, cells were incubated with LIVE/DEAD Fixable Aqua Dead Cell Stain for 30 min. After washing, cells were suspended in 100 μl PBS and then fixed by adding an equal volume of IC Fixation Buffer (CAT #00-822-49, Thermo Fisher) directly to cells and incubated at room temperature for 20 min followed by fixing with ice-cold 90% methanol in PBS for 30 min. The fixed cells were blocked and stained with p-STAT3 or γ-H2AX antibodies for flow cytometry analysis as described above.

[2] = test system: BP-sgControl and BP-sgSTING cells; assay: CellTiter-Glo cell viability of BP-sgControl and BP-sgSTING cells; format: cell-based, mouse; conditions: effect of loss of tumor cell-intrinsic STING; three days; FIG. 11B
Method: Tumor cells were seeded in 96-well plates at a density of 5000 cells per well and allowed to adhere overnight. Cells were then treated for 72 hours with indicated drugs at the concentrations shown. Cell viability was measured using CellTiter-Glo® 2.0 Cell Viability Assay (Promega, #G9242) according to the manufacturer's instruction. Growth inhibition was calculated by comparing the […] of drug-treated wells to that of untreated controls 1 set at 100%. Dose response curves and IC50 values were generated using a non-linear regression model in GraphPad Prism 8.

Q: `Cc1ccc2c(=O)c3cccc(CC(=O)O)c3oc2c1C` [DMXAA, 5,6-dimethyl-xanthenone-4-acetic acid] was tested. Which BP-sgSTING tumor growth (BP-sgSTING tumors; DMXAA 10 mg/kg i.p. weekly, FIG. 11H) did it give?
A: no significant impact

Q: And the BP-sgSTING tumor growth (BP-sgSTING tumors; DMXAA 10 mg/kg intratumoral one dose per week, FIG. 12B)?
A: completely refractory

Q: For `COc1cc2cc(C(=O)CCC(=O)O)sc2cc1OC` [MSA-2], which “M2-like TAM polarization of WT BMDMs” value [1] is on record?
A: successfully reversed

Q: `O=C(c1cc(Cc2n[nH]c(=O)c3ccccc23)ccc1F)N1CCN(C(=O)C2CC2)CC1` [olaparib] was tested. Which “DNA damage (γ-H2AX)” value (PBM-R tumor cells; PBM-R3 cells) did it give?
A: a little DNA damage signaling

Q: What about the “DNA damage (γ-H2AX)” value (PBM-R tumor cells; PBM-R tumor cells) of the same compound?
A: significantly increased DNA damage

Q: And the “sensitivity to olaparib in vitro (cell viability)” value [2]?
A: did not affect sensitivity
